Where a name gives a salt, the structure may show the parent alone.
Target: T1, phospholipase A2 (Rattus norvegicus, UniProt P14423)
T1 construct: The phospholipase A2 is isolated from the peritoneal cavity of a rat; from tissue; host or cells: peritoneal cavity of a rat
T1 sequence (P14423 22-146): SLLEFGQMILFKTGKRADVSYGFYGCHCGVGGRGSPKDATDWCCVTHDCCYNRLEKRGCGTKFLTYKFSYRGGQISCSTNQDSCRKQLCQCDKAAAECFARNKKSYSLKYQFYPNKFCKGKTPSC
Test: inhibition of phospholipase A2 (PLA2): release of 14C-labeled fatty acid from phosphatidylethanolamine
Format: biochemical
Details: PLA2 isolated from peritoneal cavity of a rat; 0.1M Tris-HCl, pH=9, Ca++; 20 min preincubation, then 20 min with substrate, 37° C.; read-out: 50% inhibitory concentration (IC50) (converted)
Method: The inhibition of phospholipase A2, which is involved in the production of allergy and inflammation mediators, especially in the inflammatory reaction of skin allergies, is measured according to the protocol described by H. W. Chang, I. Kudo, M. Tomita and K. Inoue in J. Biochem. (Tokyo) 102(1): 147-154 (1987).
The phospholipase A2 is isolated from the peritoneal cavity of a rat. PLA2 hydrolyzes the ester linkage in the 2-position of the glycerol of a phosphatidylethanolamine, this position being occupied by a fatty acid residue labeled with carbon 14. The radioactive fatty acid released will be extracted and then quantitatively analyzed by liquid scintillation. In the presence of the PLA2 inhibitor, this hydrolysis will be reduced and less released fatty acid will therefore be determined.
In practice, the PLA2 and the test product are placed in a 0.1M Tris-HCl buffer, pH=9, containing 4 mmol of Ca^++ and the mixture is incubated for 20 min at 37° C., with agitation. After this contact time, the labeled phosphatidylethanolamine is added and incubation is continued for 20 min at 37° C., with agitation, to allow the hydrolysis of this substrate. n-Heptane is then used to extract the labeled fatty acid released during the hydrolysis, the latter then being quantitatively analyzed by liquid scintillation. […]

Question: How did the IC50 turn out when `Cc1cc(OP(=O)(O)O)cc2c1OC(C)(CCCC(C)CCCC(C)CCCC(C)C)CC2` (stereo not shown) [disodium salt of delta-tocopherol phosphate] was run?
Answer: The IC50 was 20.7 µM.

Reference: patent US5603949A, “Use of a tocopherol phosphate or one of its derivatives, for the preparation of cosmetic or pharmaceutical compositions and compositions so obtained” (LVMH Recherche, priority 1991, dated 1997)
